# Measured values reported in patent US20040049075A1, “Process for the production of calcium pantothenate” (priority 2000, published 2004).
# Assay: Moisture absorption test
# Assay type: physicochemical
# Conditions: 40° C. and 75% RH; nonhygroscopic defined in b24 as moisture absorption 2% or less after 24 hours
# From the text: The term “crystalline” used in the specification encompasses a substance containing a small amount of an amorphous part, as well as a substance substantially consisting completely of crystals. However, calcium pantothenate in a completely amorphous state (the state which gives substantially no detectable peak by the powder X-ray diffraction analysis) is excluded. The term “crystalline” should not be interpreted to exclude a substance containing a small amount of an amorphous part. Further, the term “amorphous” means a state in which no peak is substantially detectable by powder X-ray diffraction analysis. The term “nonhygroscopic” used in the specification means that a moisture absorption amount is 2% or less, preferably 1% or less, after 24 hours at 40° C. under a relative humidity of 75%. A moisture absorption test was performed under conditions of 40° C. and 75% RH for the PC consisting of α-form crystals obtained in Example 1 and the PC consisting of β-form crystals obtained in Example 7. A similar test was performed for the amorphous PC used in Example 1 as a control.
substance,measurement,value
"monocalcium bis[(R)-N-(2,4-dihydroxy-3,3-dimethylbutyryl)-β-alaninate]",hygroscopicity (verdict of moisture absorption test),nonhygroscopic
